Experimental data taken from patent US12630532B2, “Indole-substituted quinolines and their combination with Plk1 inhibitors for the treatment of cancer” (UNIVERSITY OF KENTUCKY RESEARCH FOUNDATION, priority 2021, dated 2026).

Assays:
[1] = system: LS174T cells; test: Cell proliferation inhibition assay (5 days, cell counting); assay type: cell-based
Experimental: Cell proliferation inhibition assays were done following a previous report (32). Cancer cells were seeded into 24-well plates at a density of 20,000 cells per well in 1 mL of culture medium and were cultured overnight at 37° C. Compounds and the vehicle control (DMSO) were added to the cells. After 5 days, the medium was removed, and 100 μL of trypsin was added. The cells were resuspended in phosphate-buffered saline (PBS) and were counted by Vi-CELL XR 2.03 (Beckman Coulter, Inc. USA). The ratio R of the number of viable cells in the compound treatment group to the number of viable cells in DMSO treatment group was taken as relative growth, and the percentage growth inhibition was calculated as (1−R)*100.

[2] = system: Wnt signaling target genes c-Myc and axin2; test: Western blotting of Wnt signaling target genes in LS174T cells; assay type: cell-based; details: 24 hours
Experimental: (§1) Western blotting were performed according to previous procedures (25). Cells were split into 12-well plates. After 24 hours, compounds at indicated final concentrations were added to each well for another 24 hours unless otherwise noted. DMSO was used as a control. Cells were lysed in the appropriate volume of lysis buffer: 50 mM HEPES, 100 mM NaCl, 2 mM EDTA, 1% (v/v) glycerol, 50 mM NaF, 1 mM Na3VO4, 1% (v/v) Triton X-100, with protease inhibitors. Cell lysates were centrifuged, and supernatants were mixed with 6× protein loading buffer and boiled. The obtained samples were analyzed with standard western blotting methods with indicated antibodies.

[3] = system: AMPK; test: AMPK activation (western blotting, pAMPK/pACC) in LS174T cells; assay type: cell-based
Experimental: as §1

[4] = system: mitochondrial ETC (electron transport chain); test: Seahorse assay (OCR) in Beas-2B cells; assay type: cell-based
Experimental: Seahorse assays were carried out following a published procedure (25). Briefly, 2.5×10^4 cells in 80 μL of medium were seeded in XF96 Cell Culture microplate for all experiments. On the next day, cell culture media were replaced with Seahorse XF modified media. Cells were treated with 1 μM of oligomycin A, 1.0 μM FCCP and mixture of 1.0 μM of rotenone and 1.0 μM of antimycin A in standard mitochondrial stress test conditions. To determine the uncoupler effects, FCCP was replaced with an equal volume of DMSO, or a compound to be tested in DMSO solution.

[5] = system: mitochondrial ETC complex I; test: Mitochondrial ETC complex activity measurements using PMP-permeabilized cells; assay type: cell-based; details: pyruvate substrate
Experimental: Mitochondrial ETC complex activity measurements were taken using the Agilent Seahorse Assay with XF PMP (Agilent, Santa Clara, CA) following manufacturer's instructions. Adherent monolayer cells were gently washed with mitochondrial assay solution (MAS) (220 mM mannitol, 70 mM sucrose, 10 mM KH2PO4, 5 mM MgCl2, 2 mM HEPES, 1 mM EGTA, and 0.2% (w/v) fatty acid free BSA) and cell growth media was replaced with MAS supplemented with 4 mM adenosine diphosphate (ADP), 10 mM pyruvate, and 1 nM PMP. Following calibration, the assay was immediately performed by measuring baseline with two cycles of 0.5 min mixing, 0.5 min waiting, and 2 min measuring. After baseline measurements, sequential injections of DMSO, compounds of interest or 2 μM rotenone, 10 mM succinate, 2 μM antimycin A, and a combination of 10 mM ascorbate and 100 μM TMPD were also performed with each followed by two cycles of 0.5 min mixing, 0.5 min waiting, and 2 min measuring. Data were then normalized to cell counts using the Biotek Cytation 1 (BioTek Instruments, Winooski, VT, USA).

[6] = system: Plk1; test: Western blotting of cell signaling pathways in LS174T cells; assay type: cell-based; details: LS174T colon cancer cells, 24 hours
Experimental: as §1

[7] = system: LS174T colon cancer cell xenografts; test: In vivo antineoplastic activity and gross toxicity in LS174T xenografts
Experimental: Mouse studies were carried out with approval from the Institutional Animal Care and Use Committee of the University of Kentucky (2020-3531). All methods were performed in accordance with the relevant guidelines and regulations according to protocols. […] After tumors were established, mice were randomized according to tumor volume and divided into groups for treatments (five mice in each group, two tumors on each mouse).
The in vivo evaluation of ISQ-1 and BI2536 followed the approved protocol. After tumors were established, ISQ-1 was formulated in a mixture of Tween-80 (5%), DMSO (10%), PEG400 (25%) and PBS (60%) and was intraperitoneally administered to the ISQ-1 group at a daily dose of 20 mg/kg mouse body weight. The first day of treatment was set as day 0. At days 0, 4, and 7, BI2536 dissolved in 0.1 N HCl and then diluted 5-fold using 0.9% NaCl was given via gavage to the B12536 group. Mice in combination therapy group were treated with both ISQ-1 and BI2536 following aforementioned dosing schedules. At day 11 treatment was ceased and mice were sacrificed. Tumors and mouse weights were measured, and tumor volumes were calculated as Length×width^2/2.
Major biological assays were performed at least twice. Data were shown as mean SEM. For the mice study, five mice with two tumors on the lower flanks of each mouse were used in each treatment group. Sizes of the two tumors from each mouse were averaged, standardized by the tumor size on day 0, and log-transformed. ANOVA with Tukey's HSD test was used to compare the tumor size at the end of the study (day 11) between the combination therapy of ISQ-1 and B12536 and each single compound as well as the control. The equal variance assumption of ANOVA was assessed by Bartlett's test. All statistical studies were overseen in collaboration with a statistician in the University of Kentucky's Markey Cancer Center.

[8] = cited from earlier work

| SMILES | percentage inhibition of LS174T cell proliferation at 500 nM, compared among ISQs (FIG. 2B) ([1]; 500 nM) | inhibition at 0.062 µM ([1]; Homo sapiens, LS174T, 120 h, 62 nM, 5 days) [%] | inhibition at 0.125 µM ([1]; Homo sapiens, LS174T, 120 h, 125 nM, 5 days) [%] | inhibition at 0.25 µM ([1]; Homo sapiens, LS174T, 120 h, 250 nM, 5 days) [%] | inhibition at 0.5 µM ([1]; Homo sapiens, LS174T, 120 h, 500 nM, 5 days) [%] | IC50 ([1]; Homo sapiens, dose response studies, LS174T, read-out: IC50 values in cell proliferation assays) [µM] | effect on Wnt signaling target genes c-Myc and axin2 [2] | AMPK activation [3] | ETC complex V inhibition (oligomycin replaced with compound) [4] | uncoupler effect (FCCP replaced with compound) [4] | ETC complex I inhibition (pyruvate/NADH-linked respiration) [5] | Plk1 expression upon drug treatment [6] | gross toxicities on the basis of mouse weight measurements ([7]; mouse, in vivo) | tumor growth of LS174T xenografts ([7]; nude mice, ISQ-1 20 mg/kg daily i.p., BI2536 30 mg/kg twice a week by gavage, day 11) | antitumor activity in Phase II clinical trials ([8]; Phase II) | safety in phase I clinical trials ([8]; phase I) |
| --- | --- | --- | --- | --- | --- | --- | --- | --- | --- | --- | --- | --- | --- | --- | --- | --- |
| Cn1cc(-c2cc3ccc(N4CCC(C#N)CC4)cc3nc2N)c2ccccc21 [ISQ-7, 1-(2-Amino-3-(1-methyl-1H-indol-3-yl)quinolin-7-yl)piperidine-4-carbonitrile] | comparable to the N,N-dimethylamino group in ISQ-1 | 19 ± 5.5 | 89 ± 0.2 | 98 ± 0.6 | 97 ± 0.7 | ~0.1 | strongly inhibited | activated AMPK | did not inhibit ETC complex V | no uncouplers | inhibited complex I | induced |  |  |  |  |
| CC[C@@H]1C(=O)N(C)c2cnc(Nc3ccc(C(=O)NC4CCN(C)CC4)cc3OC)nc2N1C1CCCC1 [BI2536, reference compound] |  |  |  |  |  |  |  |  |  |  |  |  | No gross toxicities | inhibited tumor growth but did not induce tumor regression | only limited antitumor activity | safe |
